Measurements: patent US5262537A, “Derivatives of 4,5,6,7-tetrahydroimidazo-[4,5-c]pyridinyl-6-carboxylic acid” (priority 1993, dated 1993)
Where a name gives a salt, the structure may show the parent alone. Read-outs that look alike come from different tables or passages of the source.

What was measured:
5-HT3 = target: T1, 5-HT3 (Rattus norvegicus, UniProt P35563); test: biochemical; assay type: binding, Male Sprague-Dawley rats
T1 sequence (P35563 24-483): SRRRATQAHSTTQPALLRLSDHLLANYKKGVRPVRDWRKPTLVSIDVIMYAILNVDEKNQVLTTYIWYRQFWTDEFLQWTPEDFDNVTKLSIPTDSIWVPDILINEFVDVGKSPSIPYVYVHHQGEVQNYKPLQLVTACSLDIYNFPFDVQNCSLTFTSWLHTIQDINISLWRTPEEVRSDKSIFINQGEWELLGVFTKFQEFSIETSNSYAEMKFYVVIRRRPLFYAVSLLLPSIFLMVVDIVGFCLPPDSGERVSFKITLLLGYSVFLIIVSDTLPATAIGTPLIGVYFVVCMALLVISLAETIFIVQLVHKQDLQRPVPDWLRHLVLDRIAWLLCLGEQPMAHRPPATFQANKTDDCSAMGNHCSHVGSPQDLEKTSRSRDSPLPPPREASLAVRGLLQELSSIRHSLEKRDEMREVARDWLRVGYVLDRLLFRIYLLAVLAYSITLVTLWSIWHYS
Protocol: A number of compounds in accordance with the present invention were tested for their 5-HT3 and D2 binding affinities in accord with the following procedures.
Male Sprague-Dawley rats (175-220 g) were sacrificed by decapitation and their brains removed rapidly. The entorhinal cortex was used for the 5-HT3 (5-hydroxytryptamine) binding assay and the remainder of the brain, minus the brain stem and cerebellum, was used for the D2 (dopamine) binding assay. The entorhinal cortex was harvested and prepared on the day of the assay.
The entorhinal cortex was homogenized in 20 volumes of cold 50 mM HEPES buffer, pH 7.4, while the remaining brain tissue was homogenized in 20 volumes of cold 50 mM Tris, pH 7.4. The homogenates were centrifuged at 4800×g for 15 minutes at 5° C. and the supernatants decanted. Pellets were resuspended in the original volume of HEPES or Tris. Homogenates were centrifuged and the supernatants decanted. Pellets were resuspended in the same volume of HEPES or Tris and incubated at 37° C. for 45 minutes to remove endogenous neurotransmitters. Homogenates were centrifuged and the supernatants were decanted. Pellets for D2 assays were stored at -50° C. until the day of the assay. The pellets for the 5-HT3 assay (entorhinal cortex) were resuspended in the appropriate amount of HEPES buffer and used promptly. Modifications of published assays for [^3 H]GR65630 (Kilpatrick et al., Nature: 330, 746-748 (1987)) and [^3 H]raclopride (Dewar et al., J. Pharmacol. Exp. Ther.: 250, 696-706 (1989) and Lidow et al., Proc. Natl. Acad. Sci. USA: 86, 6412-6416 (1989)) were used for the 5-HT3 and D2 binding assays, respectively.
Briefly, 0.25 ml of homogenate was incubated with either 0.2 nM of [^3 H]GR65630 or 1.0 nM of [^3 H]raclopride in a final volume of 0.5 ml. D2 binding also requires sodium chloride and potassium chloride (120 mM and 5 mM, final concentration, respectively). In the 5-HT3 assay, non-specific binding was defined in the presence of 100 uM quipazine. In the D2 assay, non-specific binding was defined in the presence of 100 uM of (+/-) sulpiride. Both assays were incubated at room temperature; [^3 H]GR65630 for 40 minutes and [^3 H]raclopride for 60 minutes. Test compounds (0.1 ml) were added to incubates where appropriate. Bound ligand was separated from free ligand by filtration and quantified using liquid scintillation spectrophotometry. IC50 values were calculate for all test compounds.

Ferret = test: Cisplatin Ferret Assay--Antiemetic Screening; assay type: in vivo, Male ferrets; settings: for inhibition in vivo at 0.1 mg/kg / ED50: Mustela putorius, iv, 4 h; for inhibition in vivo at 0.1 mg/kg: read-out: Ferret Cisplatin Test % Prot, 0.1 mg/Kg; for ED50: i.v., emetic episodes over four hours, read-out: Ferret Cisplatin Test ED50
Protocol: Male ferrets (castrated, descented, 1-2 kg) were purchased from Triple F Farms, Syre, Pa. Ferrets were housed four in a cage with a 12 hour light cycle and were fed ad libitum with Ralston Purina Cat Chow. Each ferret was used unfasted for the assay after a minimum of a 24 hour acclimation time in animal facility.
Ferret Preparation. Each ferret was anesthetized with 5% isoflurane-O2in a 20 gallon aquarium for 2 to 5 minutes. After removal of the anesthetic gas, the animals were removed and weighed. Injections were made into the dorsal front paw vein using a tourniquet and a 1 ml tuberculin syringe with a 25 g needle while the animal was maintained under anesthesia using a small nose cone delivering 5% isoflurane-O2. Cisplatin was injected using a 3 ml or 5 ml syringe in the opposite paw from the study compound or saline. Recovery time from anaesthesia was 5 to 8 minutes.
Drug Preparation. Cisplatin bulk powder was weighed and dissolved in normal saline at 75° C. to provide a 5 mg/ml solution (90 mg was placed in a scintillation vial and qs with 18 ml saline). The solution was stirred and maintained at 40° C. until ready for use. The study drug was weighed and dissolved in normal saline at room temperature to provide a 1 mg/ml solution (10 mg was placed in a scintillation vial and qs with 10 ml saline). Suspensions were heated to 40° C. to bring the study compound into solution. Compounds not soluble under these conditions were not assayed.
Assay. Cisplatin was injected i.v. at 10 mg/kg into twelve anesthetized ferrets daily at time zero. Normal saline (0.5 ml) or the study compound (0.1 or 1.0 mg/kg) was injected 30 minutes later in groups of three anesthetized ferrets. Order of treatment and treatment dose was selected at random, with the remaining treatment dose assayed in the next experiment.
Experimental Observations and Data Collection. Ferrets were viewed individually. The time and number of emetic episodes were recorded for four hours. Zero time was equivalent to the time of cisplatin injection. […] Retches were recorded but not counted. The total number of episodes for each of the four groups of three ferrets (+/-S.E.) was averaged and the effect of treatment (% protection) was calculated as the percent reduction of emetic episodes compared to controls. [formula]
Percent protection values were determined from experimental controls. Experimental controls were those obtained from the day of the experiment. Onset times of the first episode were averaged and recorded for each group. Prodromal signs (lip licking, slit eyes, head shaking, salivation, scratching, clawing, walking backward, sedation, urination, and defecation) were also averaged and recorded.

[1] = 0.2 nM [3H]GR65630, rat entorhinal cortex, 40 minutes, room temperature, read-out: 5-HT3 IC50
[2] = 0.1 mg/kg i.v., 30 minutes after cisplatin 10 mg/kg i.v., percent reduction of emetic episodes vs controls, four hours
[3] = 30 minutes after cisplatin 10 mg/kg i.v.

| IC50 (5-HT3; [1]) [nM] | Structure (SMILES) | inhibition in vivo at 0.1 mg/kg (Ferret; [2]) [%] | ED50 (Ferret; [3]) [mg/kg] | Ferret Cisplatin Test % Prot, 0.1 mg/Kg (Ferret; [2]) [%] | inhibition in vivo at 0.1 mg/kg (Ferret) [%] | IC50 (5-HT3) [nM] |
| --- | --- | --- | --- | --- | --- | --- |
| 3490 | CN1Cc2nc[nH]c2C[C@H]1C(=O)Nc1ccccc1N [Compd 42] | 39 | 0.23 | – | – | – |
| 21.7 | COc1ccccc1NC(=O)[C@@H]1Cc2nc[nH]c2C(C)(C)N1 [Compd 20] | – | 0.008 | 72 | – | – |
| 8.55 | CC1(C)N[C@H](C(=O)Nc2ccccc2Oc2ccccc2)Cc2[nH]cnc21 [Compd 49, (S)-6-(2-phenoxy-phenylaminocarbonyl)-4,4-dimethyl-4,5,6,7-tetrahydroimidazo[4,5-c]pyridine] | 76 | 0.022 | – | – | – |
| 158 | CC(=O)c1ccccc1NC(=O)[C@@H]1Cc2[nH]cnc2C(C)(C)N1 [Compd 48] | 100 | 0.0098 | – | – | – |
| 9.52 | CN1Cc2nc[nH]c2C[C@H]1C(=O)Nc1ccccc1Oc1cccc(C(F)(F)F)c1 [Compd 44] | 1 | 0.26 | – | – | – |
| 26.7 | CN1Cc2nc[nH]c2C[C@H]1C(=O)Nc1ccccc1Cl [Compd 37] | 42 | 0.065 | – | – | – |
| 289 | CN1Cc2nc[nH]c2C[C@H]1C(=O)Nc1ccccc1NC(=O)c1ccccc1 [Compd 26] | 0 | – | – | – | – |
| 17.6 | CCN1Cc2nc[nH]c2C[C@H]1C(=O)Nc1ccccc1O [Compd 18] | 46 | 0.16 | – | – | – |
| 7.09 | CN1Cc2nc[nH]c2C[C@H]1C(=O)Nc1ccccc1Oc1cccc(F)c1 [Compd 45] | 67 | 0.042 | – | – | – |
| 6.92 | CN1Cc2nc[nH]c2C[C@H]1C(=O)Nc1ccccc1Oc1ccccc1.Cl.Cl [Compd 27, (S)-5-methyl-6-(2-phenoxyphenylaminocarbonyl)-4,5,6,7-tetrahydroimidazo[4,5-c]pyridine dihydrochloride] | 72 | 0.031 | – | – | – |
| 644 | CN1Cc2nc[nH]c2C[C@H]1C(=O)Nc1cccc(F)c1F [Compd 31] | 91 | 0.068 | – | – | – |
| 47.2 | CN1[C@H](C(=O)Nc2ccccc2O)Cc2[nH]cnc2C1(C)C [Compd 24] | 48 | 0.025 | – | – | – |
| 45.9 | CN1Cc2nc[nH]c2C[C@H]1C(=O)Nc1cc(O)ccc1O [Compd 40, (S)-6-(2,5-dihydroxyphenylaminocarbonyl)-5-methyl-4,5,6,7-tetrahydroimidazo[4,5-c]pyridine dihydrobromide] | 0 | – | – | – | – |
| 29 | COC(=O)c1ccccc1NC(=O)[C@@H]1Cc2[nH]cnc2CN1C [Compd 16] | 42 | 0.01 | – | – | – |
| 160 | CN1Cc2nc[nH]c2C[C@H]1C(=O)Nc1ccc(F)c(F)c1F [Compd 35] | 20 | 0.19 | – | – | – |

More lines, now with the values behind:

| Structure (SMILES) | IC50 (5-HT3; [1]) [nM] | inhibition in vivo at 0.1 mg/kg (Ferret; [2]) [%] | ED50 (Ferret; [3]) [mg/kg] | Ferret Cisplatin Test % Prot, 0.1 mg/Kg (Ferret; [2]) [%] | inhibition in vivo at 0.1 mg/kg (Ferret) [%] | IC50 (5-HT3) [nM] |
| --- | --- | --- | --- | --- | --- | --- |
| CN1Cc2[nH]cnc2C[C@@H]1C(=O)Nc1nccs1 [Compd 12] | 273 | – | – | 40 | – | – |
| COC(=O)c1ccccc1NC(=O)[C@H]1Cc2[nH]cnc2CN1C [Compd 4] | 12.1 | 33 | 0.1 | – | – | – |
| Cc1nccn1CC1CCc2c(c3ccccc3n2C)C1=O (stereo not shown) [Ondansetron, reference compound] | – | 77 | 0.041 | – | – | – |
| COc1ccccc1NC(=O)[C@H]1Cc2[nH]cnc2CN1 [Compd 8] | 10.4 | 62 | – | – | – | – |
| COc1ccc(Cl)cc1NC(=O)[C@H]1Cc2[nH]cnc2CN1C [Compd 2] | 10 | 31 | 0.4 | – | – | – |
| CCOc1ccccc1NC(=O)[C@H]1Cc2[nH]cnc2CN1C [Compd 10] | 4.14 | 29 | 0.31 | – | – | – |
| CN1Cc2nc[nH]c2C[C@H]1C(=O)Nc1ccccc1O [Compd 15, (S)-6-(2-hydroxyphenylaminocarbonyl)-5-methyl-4,5,6,7-tetrahydroimidazo[4,5-c]pyridine] | 62.4 | 99 | 0.007 | – | – | – |
| CC(=O)c1ccccc1NC(=O)[C@H]1Cc2[nH]cnc2CN1C [Compd 5] | 4.26 | 22 | 0.123 | – | – | – |
| CN1Cc2nc[nH]c2C[C@H]1C(=O)c1cccs1 [Compd 28] | 648 | – | – | – | 0 | – |
| CN1Cc2nc[nH]c2C[C@@H]1C(=O)Nc1ccccc1 [Compd 9] | 57.2 | 26 | 0.33 | – | – | – |
| COc1ccc2oc(C(=O)[C@@H]3Cc4[nH]cnc4CN3C)cc2c1 [Compd 41] | 12900 | – | – | – | 9 | – |
| COc1ccccc1NC(=O)[C@@H]1Cc2[nH]cnc2CN1C [Compd 6] | 4.86 | 77 | 0.023 | – | – | – |
| COc1ccccc1NC(=O)[C@H]1Cc2[nH]cnc2CN1C [Compd 3] | 47.6 | 9 | 2.08 | – | – | – |
| CN1Cc2nc[nH]c2C[C@@H]1C(=O)c1ccccc1 [Compd 19, (R)-6-benzoyl-5-methyl-4,5,6,7-tetrahydroimidazo[4,5-c]pyridine] | – | – | – | – | 8 | 58.5 |
| CN1Cc2nc[nH]c2C[C@@H]1C(=O)Nc1ccccc1O [Compd 1] | 10.9 | 73 | 0.063 | – | – | – |
| COc1ccccc1C(=O)[C@@H]1Cc2[nH]cnc2CN1C [Compd 43] | – | – | – | – | 41 | 2380 |
| CN1C2CCCC1CC(NC(=O)c1nn(C)c3ccccc13)C2 (stereo not shown) [Granisetron, reference compound] | – | 71 | 0.03 | – | – | – |
| COc1ccc(Cl)cc1NC(=O)[C@@H]1Cc2[nH]cnc2CN1C [Compd 7] | 6.26 | 57 | 0.14 | – | – | – |
| COc1ccccc1NC(=O)[C@@H]1Cc2[nH]cnc2CN1C(C)=O [Compd 47, (S)-5-acetyl-6-(2-methoxyphenylaminocarbonyl)-4,5,6,7-tetrahydroimidazo[4,5-c]pyridine] | – | 81 | 0.044 | – | – | – |
